#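 Interpolation was linear, between the two tested concentrations surrounding the appropriate level; five concentrations were tested over 48 hours in 96-well plates. At the GI50, growth is halved.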 Activity calls are given as the source filed them. Rule as the data show it: active = GI50 up to about 1.1 µM and inactive = higher.
# How the values were obtained:
# Assay in all cases: inhibition of tumour cell growth, NCI panel, 48 h
# SF-295 = system: SF-295
# HCC 2998 = system: HCC 2998
# SR = system: SR
# UO-31 = system: UO-31
# ACHN = system: ACHN
# OVCAR-3 = system: OVCAR-3
# A498 = system: A498
# SW-620 = system: SW-620
# SK-MEL-5 = system: SK-MEL-5
# K562 = system: K562
# UACC-257 = system: UACC-257
# NCI-H460 = system: NCI-H460
# SF-268 = system: SF-268
# U-251 = system: U-251
# TK-10 = system: TK-10
# UACC-62 = system: UACC-62
# RXF 393 = system: RXF 393
# IGROV-1 = system: IGROV-1
# LOX IMVI = system: LOX IMVI
# SK-MEL-28 = system: SK-MEL-28
# NCI-H522 = system: NCI-H522
# HT-29 = system: HT-29
# SK-OV-3 = system: SK-OV-3
# SNB-75 = system: SNB-75
# HCT-15 = system: HCT-15
# OVCAR-5 = system: OVCAR-5
# M14 = system: M14
# HL-60 = system: HL-60
# CCRF-CEM = system: CCRF-CEM
# SN12C = system: SN12C
# SNB-19 = system: SNB-19
# OVCAR-8 = system: OVCAR-8
smiles,measurement,setting,value
O=C(N/N=C/c1cc(Cl)cc(Cl)c1O)c1ccccc1O,GI50,SF-295,721 nM (active)
same,GI50,HCC 2998,2.17 µM (inactive)
same,GI50,SR,388 nM (active)
same,GI50,UO-31,2.88 µM (inactive)
same,GI50,ACHN,447 nM (active)
same,GI50,OVCAR-3,305 nM (active)
same,GI50,A498,7.5 µM (inactive)
same,GI50,SW-620,601 nM (active)
same,GI50,SK-MEL-5,1.57 µM (inactive)
same,GI50,K562,977 nM (active)
same,GI50,UACC-257,2.04 µM (inactive)
same,GI50,NCI-H460,656 nM (active)
same,GI50,SF-268,480 nM (active)
same,GI50,U-251,849 nM (active)
same,GI50,TK-10,2.23 µM (inactive)
same,GI50,UACC-62,323 nM (active)
same,GI50,RXF 393,946 nM (active)
same,GI50,IGROV-1,2.62 µM (inactive)
same,GI50,LOX IMVI,398 nM (active)
same,GI50,SK-MEL-28,1.31 µM (inactive)
same,GI50,NCI-H522,441 nM (active)
same,GI50,HT-29,3.65 µM (inactive)
same,GI50,SK-OV-3,687 nM (active)
same,GI50,SNB-75,2.44 µM (inactive)
same,GI50,HCT-15,460 nM
same,GI50,OVCAR-5,2.08 µM (inactive)
same,GI50,M14,847 nM (active)
same,GI50,HL-60,221 nM (active)
same,GI50,CCRF-CEM,279 nM (active)
same,GI50,SN12C,2.36 µM (inactive)
same,GI50,SNB-19,3.18 µM (inactive)
same,GI50,OVCAR-8,198 nM (active)

# From ChEMBL document CHEMBL1201862, “PubChem BioAssay data set” (2004)
